Data from ChEMBL document CHEMBL1132362, “Synthesis of 5-(carboranylalkylmercapto)-2'-deoxyuridines and 3-(carboranylalkyl)thymidines and their evaluation as substrates for human thymidine kinases 1 and 2” (J Med Chem, 1999).

System: Thymidine Kinase (TK1)
Experiment: Kinetic constant Km for Thymidine Kinase (TK1)
Assay type: ADME

For Cc1cn([C@H]2C[C@H](O)[C@@H](CO)O2)c(=O)[nH]c1=O [DOXRIBTIMINE], the Km was 1 µM.
